Experimental data reported in patent publication US11964973B2 (priority 2019, dated 2024).
Where two headings read alike, the source gives them in different places.

Experiments:
[1] = tested on: Human venous whole blood (IFN-γ); assay: Human whole blood IFN-γ assay; format: cell-based
Description: Assay 10: Human Whole Blood IFN-γ Assay
Human venous whole blood (22.5 μL per well), obtained from healthy donors, was pre-treated with compounds for one hour at 37° C. in a humidified 95% air/5% CO2 incubator. The blood was stimulated with 2.5 μL anti-human CD3 and anti-CD28 mAb at a final concentration of 1 μg/mL each for 24 hours at 37° C. IFN-γ in the supernatants was measured using AlphLISA kit (Cat #AL217).

[2] = tested on: human venous whole blood, CD8 positive population (pERK); assay: DGK human whole blood pERK assay; format: cell-based; details: for IC50: human whole blood, CD8 positive population, read-out: DGK HWB pERK IC50
Description: Assay 11: DGK Human Whole Blood pERK Assay
Human whole blood ERK phosphorylation assay was performed with human venous whole blood obtained from healthy donors (drawn with Heparin as anti-coagulant). […] Heparinized human whole blood was added to the compound plate at 9 μL per well and incubated for one hour at 37° C. in a humidified 95%, air/5% CO2 incubator. After one hour of compound incubation, 1 μL of human anti-CD3 antibody (in-house) in the presence of cross-linking antibody goat anti-mouse IgG (4 μg/mL) was added to the well at 1 μg/mL final concentration for stimulation of pathway and additionally incubated for 15 minutes at 37° C. […] Samples analyzed using the Intellicyt® iQue Screener PLUS. The pERK activation was quantitated by the percentage of pERK positive population within CD8 positive population.

[3] = Homo sapiens, human whole blood IFN-γ, read-out: INFg Whole Blood
[4] = Homo sapiens, CD8 positive, human whole blood pERK, read-out: DGK HWB
[5] = Homo sapiens, 24 h, human whole blood, anti-CD3 plus anti-CD28, 24 hours, read-out: INFg Whole Blood Normalized Agonist EC50
[6] = human whole blood IFN-γ, read-out: INFg Whole Blood
[7] = human whole blood pERK, read-out: DGK HWB
[8] = Homo sapiens, CD8 positive, read-out: DGK HWB, human whole blood pERK
[9] = read-out: DGK HWB, human whole blood pERK

C[C@@H]1CN(c2cc(=O)n(C)c3ccc(C#N)nc23)CC[C@@H]1Oc1ccc(C(F)F)cn1 (single isomer, unassigned) [Example 209]
EC50 [1, 3]: 1800 nM
EC50 [2, 4]: 18000 nM

C[C@@H]1CN(c2cc(=O)n(C)c3ccc(C#N)nc23)CC[C@H]1Oc1ccc(F)c(F)c1 (single isomer, unassigned) [Example 104]
EC50 [1, 5]: 1800 nM
IC50 [2]: 1100 nM

C[C@@H]1CN(c2cc(=O)n(C)c3ccc(C#N)nc23)CC[C@@H]1Oc1ccc(C(F)F)cn1 (single isomer, unassigned) [Example 210]
EC50 [1, 6]: 1200 nM
EC50 [2, 7]: 13000 nM

CC(C)c1ccc(O[C@H]2CCN(c3cc(=O)n(C)c4ccc(C#N)nc34)C[C@H]2C)nc1 (single isomer, unassigned) [Example 206]
EC50 [1, 6]: 410 nM
EC50 [2, 7]: 3600 nM

CC[C@@H]1CN(c2cc(=O)n(C)c3ccc(C#N)nc23)CC[C@H]1Oc1ccc(C(C)C)cc1 (single isomer, unassigned) [Example 144]
EC50 ([1]; human whole blood, anti-CD3 plus anti-CD28, 24 hours, read-out: INFg Whole Blood Normalized Agonist EC50): 800 nM
IC50 [2]: 880 nM

Cn1c(=O)cc(N2CCC(Oc3ccc(C(C)(C)C)cc3)CC2)c2cc(C#N)ccc21 [Example 53, 4-(4-(4-(tert-butyl)phenoxy)piperidin-1-yl)-1-methyl-2-oxo-1,2-dihydroquinoline-6-carbonitrile]
EC50 [1, 5]: 1800 nM
IC50 [2]: 2800 nM

CC(C)c1ccc(O[C@H]2CCN(c3cc(=O)n(C)c4ccc(C#N)nc34)C[C@H]2C)nc1 (single isomer, unassigned) [Example 207]
EC50 [1, 6]: 1300 nM
EC50 [2, 7]: 12000 nM

CC(C)Oc1ccc(O[C@@H]2CCN(c3cc(=O)n(C)c4ccc(C#N)nc34)C[C@H]2C)nc1 (single isomer, unassigned) [Example 200]
EC50 [1, 3]: 1500 nM
EC50 [2, 4]: 3300 nM

CCO[C@H]1CN(c2cc(=O)n(C)c3ccc(C#N)nc23)CC[C@@H]1Oc1ccccc1C(F)(F)F [Example 346, 8-((3S,4S)-3-ethoxy-4-(2-(trifluoromethyl)phenoxy)piperidin-1-yl)-5-methyl-6-oxo-5,6-dihydro-1,5-naphthyridine-2-carbonitrile]
EC50 [2, 7]: 20000 nM

CC[C@@H]1CN(c2nc(=O)n(C)c3ccc(C#N)nc23)[C@@H](C)C[C@@H]1Oc1ccc(OC(C)C)cn1 [Example 307, 4-((2S,4S,5R)-5-ethyl-4-((5-isopropoxypyridin-2-yl)oxy)-2-methylpiperidin-1-yl)-1-methyl-2-oxo-1,2-dihydropyrido[3,2-d]pyrimidine-6-carbonitrile]
EC50 [2, 8]: 170 nM

CCO[C@H]1CN(c2cc(=O)n(C)c3ccc(C#N)nc23)CC[C@@H]1Oc1nc2ccccc2s1 [Example 374]
EC50 [2, 7]: 20000 nM

CCO[C@H]1CN(c2cc(=O)n(C)c3ccc(C#N)nc23)CC[C@@H]1Oc1ccc(C(F)(F)F)cc1 [Example 344, 8-((3S,4S)-3-ethoxy-4-(4-(trifluoromethyl)phenoxy)piperidin-1-yl)-5-methyl-6-oxo-5,6-dihydro-1,5-naphthyridine-2-carbonitrile]
EC50 [2, 7]: 20000 nM

CCO[C@H]1CN(c2cc(=O)n(C)c3ccc(C#N)nc23)CC[C@@H]1Oc1ccnc(C(F)(F)F)c1 [Example 360, 8-((3S,4S)-3-ethoxy-4-((2-(trifluoromethyl)pyridin-4-yl)oxy)piperidin-1-yl)-5-methyl-6-oxo-5,6-dihydro-1,5-naphthyridine-2-carbonitrile]
EC50 [2, 9]: 700 nM

CC[C@@H]1CN(c2cc(=O)n(C)c3ccc(C#N)nc23)[C@H](C)C[C@@H]1Oc1cccc(C(F)(F)F)c1 [Example 309, 8-((2R,4S,5R)-5-ethyl-2-methyl-4-(3-(trifluoromethyl)phenoxy)piperidin-1-yl)-5-methyl-6-oxo-5,6-dihydro-1,5-naphthyridine-2-carbonitrile]
EC50 [2, 4]: 4000 nM

CC[C@@H]1CN(c2nc(=O)n(C)c3ccc(C#N)nc23)[C@@H](C)C[C@H]1Oc1ccc(OC(C)C)cn1 [Example 301, 4-((2S,4R,5R)-5-ethyl-4-((5-isopropoxypyridin-2-yl)oxy)-2-methylpiperidin-1-yl)-1-methyl-2-oxo-1,2-dihydropyrido[3,2-d]pyrimidine-6-carbonitrile]
EC50 [2, 8]: 11000 nM

CC[C@@H]1CN(c2nc(=O)n(C)c3ccc(Cl)nc23)[C@@H](C)C[C@H]1Oc1ccc(OC(C)C)cn1 [Example 300, 6-chloro-4-((2S,4R,5R)-5-ethyl-4-((5-isopropoxypyridin-2-yl)oxy)-2-methylpiperidin-1-yl)-1-methylpyrido[3,2-d]pyrimidin-2(1H)-one]
EC50 [2, 8]: 8300 nM

CCO[C@H]1CN(c2cc(=O)n(C)c3ccc(C#N)nc23)CC[C@@H]1Oc1cccc(OC(F)(F)F)c1 [Example 352, 8-((3S,4S)-3-ethoxy-4-(3-(trifluoromethoxy)phenoxy)piperidin-1-yl)-5-methyl-6-oxo-5,6-dihydro-1,5-naphthyridine-2-carbonitrile]
EC50 [2, 7]: 12000 nM

CC1CN(c2c(C#N)c(=O)n(C)c3ccc(C#N)nc23)CCC1N(C)C1CCC(F)(F)CC1 (single isomer, unassigned) [Example 329]
EC50 [2, 4]: 13000 nM

CC[C@@H]1CN(c2nc(=O)n(C)c3ccc(C#N)nc23)[C@H](C)C[C@@H]1Oc1ccc(OC(C)C)cn1 [Example 305, 4-((2R,4S,5R)-5-ethyl-4-((5-isopropoxypyridin-2-yl)oxy)-2-methylpiperidin-1-yl)-1-methyl-2-oxo-1,2-dihydropyrido[3,2-d]pyrimidine-6-carbonitrile]
EC50 [2, 8]: 730 nM

CCO[C@H]1CN(c2cc(=O)n(C)c3ccc(C#N)nc23)CC[C@@H]1Oc1ccc(OC(C)C)nn1 [Example 375, 8-((3S,4S)-3-ethoxy-4-((6-isopropoxypyridazin-3-yl)oxy)piperidin-1-yl)-5-methyl-6-oxo-5,6-dihydro-1,5-naphthyridine-2-carbonitrile]
EC50 [2, 8]: 2300 nM

C[C@H]1CN(c2cc(=O)n(C)c3ccc(C#N)nc23)[C@@H](C)C[C@H]1Oc1cccc(C#N)c1 [Example 314, 8-((2S,4R,5S)-4-(3-cyanophenoxy)-2,5-dimethylpiperidin-1-yl)-5-methyl-6-oxo-5,6-dihydro-1,5-naphthyridine-2-carbonitrile]
EC50 [2, 4]: 16000 nM

CCO[C@H]1CN(c2cc(=O)n(C)c3ccc(C#N)nc23)CC[C@@H]1Oc1ccccc1C(F)(F)F [Example 345, 8-((3S,4S)-3-ethoxy-4-(2-(trifluoromethyl)phenoxy)piperidin-1-yl)-5-methyl-6-oxo-5,6-dihydro-1,5-naphthyridine-2-carbonitrile]
EC50 [2, 7]: 820 nM

CCO[C@H]1CN(c2cc(=O)n(C)c3ccc(C#N)nc23)CC[C@@H]1Oc1cc(C(F)(F)F)ccn1 [Example 365, 8-((3S,4S)-3-ethoxy-4-((4-(trifluoromethyl)pyridin-2-yl)oxy)piperidin-1-yl)-5-methyl-6-oxo-5,6-dihydro-1,5-naphthyridine-2-carbonitrile]
EC50 [2, 7]: 600 nM

CCO[C@H]1CN(c2cc(=O)n(C)c3ccc(C#N)nc23)CC[C@@H]1Oc1ccc2oc(C)nc2c1 [Example 355, 8-((3S,4S)-3-ethoxy-4-((2-methylbenzo[d]oxazol-5-yl)oxy)piperidin-1-yl)-5-methyl-6-oxo-5,6-dihydro-1,5-naphthyridine-2-carbonitrile]
EC50 [2, 7]: 20000 nM

CCO[C@H]1CN(c2cc(=O)n(C)c3ccc(C#N)nc23)CC[C@@H]1Oc1ccc(Cl)c(F)c1 [Example 357, 8-((3S,4S)-4-(4-chloro-3-fluorophenoxy)-3-ethoxypiperidin-1-yl)-5-methyl-6-oxo-5,6-dihydro-1,5-naphthyridine-2-carbonitrile]
EC50 [2, 9]: 20000 nM

C[C@@H]1CN(c2nc(=O)n(C)c3ccc(C#N)nc23)[C@H](C)CC1Oc1cccc(C(F)(F)F)c1 (stereo partly drawn) [Example 257, 4-((2R,5R)-2,5-dimethyl-4-(3-(trifluoromethyl)phenoxy)piperidin-1-yl)-1-methyl-2-oxo-1,2-dihydropyrido[3,2-d]pyrimidine-6-carbonitrile]
EC50 [2, 9]: 800 nM

CC(C)Oc1ccc(OC2C[C@@H](C)N(c3nc(=O)n(C)c4ccc(C#N)nc34)C[C@@H]2C)nc1 (stereo partly drawn) [Example 249, 4-((2R,5S)-4-((5-isopropoxypyridin-2-yl)oxy)-2,5-dimethylpiperidin-1-yl)-1-methyl-2-oxo-1,2-dihydropyrido[3,2-d]pyrimidine-6-carbonitrile]
EC50 [2, 9]: 490 nM

C[C@@H]1CC(Oc2cccc(C(F)(F)F)c2)[C@@H](C)CN1c1nc(=O)n(C)c2ccc(C#N)nc12 (stereo in doubt) [Example 251, 4-((2R,5S)-2,5-dimethyl-4-(3-(trifluoromethyl)phenoxy)piperidin-1-yl)-1-methyl-2-oxo-1,2-dihydropyrido[3,2-d]pyrimidine-6-carbonitrile]
EC50 [2, 8]: 1800 nM

CC[C@@H]1CN(c2cc(=O)n(C)c3ccc(C#N)nc23)[C@@H](C)C[C@@H]1Oc1ccc(OC(C)C)cn1 [Example 299, 8-((2S,4S,5R)-5-ethyl-4-((5-isopropoxypyridin-2-yl)oxy)-2-methylpiperidin-1-yl)-5-methyl-6-oxo-5,6-dihydro-1,5-naphthyridine-2-carbonitrile]
EC50 [2, 8]: 780 nM
